Measurements from PubChem BioAssay (NCI).
Where “and” joins values, the source holds several entries; their conditions need not be identical. Equal values may be shown once.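 Cultured in 96-well plates, cells were exposed to test compound for 48 hours across five concentrations. Abbreviation: GI50, concentration required for 50% inhibition of growth. TGI: concentration producing complete growth inhibition.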

Columns and labels:
Experiment in all cases: inhibition of tumour cell growth, NCI panel, 48 h
UACC-257 melanoma = test system: UACC-257 melanoma
ACHN renal = test system: ACHN renal
SK-MEL-2 melanoma = test system: SK-MEL-2 melanoma
SF-295 CNS = test system: SF-295 CNS
RXF 393 renal = test system: RXF 393 renal
OVCAR-5 ovarian = test system: OVCAR-5 ovarian
LOX IMVI melanoma = test system: LOX IMVI melanoma
UO-31 renal = test system: UO-31 renal
COLO 205 colon = test system: COLO 205 colon
SF-268 CNS = test system: SF-268 CNS

Compound | GI50 (UACC-257 melanoma) | TGI (UACC-257 melanoma) | GI50 (ACHN renal) | TGI (ACHN renal) [µM] | GI50 (SK-MEL-2 melanoma) | TGI (SK-MEL-2 melanoma) | GI50 (SF-295 CNS) | TGI (SF-295 CNS) | GI50 (RXF 393 renal) | TGI (RXF 393 renal) | GI50 (OVCAR-5 ovarian) | TGI (OVCAR-5 ovarian) [µM] | GI50 (LOX IMVI melanoma) | TGI (LOX IMVI melanoma) | GI50 (UO-31 renal) | TGI (UO-31 renal) | GI50 (COLO 205 colon) | TGI (COLO 205 colon) | GI50 (SF-268 CNS) | TGI (SF-268 CNS)
Nc1nc([Se])c2ncn(C3OC(CO)C(O)C3O)c2n1 (stereo unspecified) | 37.5 µM | > 100 µM | 20.8 µM | > 100 | 59.8 µM | > 100 µM | 3.95 µM | > 100 µM | > 100 µM | > 100 µM | 8.24 µM | > 100 | 2.85 µM | > 100 µM | 24.3 µM | > 100 µM | 19.3 µM | 72.5 µM | 9.27 µM | > 100 µM
O=C(O)[C@H](NS(=O)(=O)c1ccc(F)cc1)c1ccccc1 | – | > 100 µM | – | > 100 | – | > 100 µM | – | > 100 µM | – | > 100 µM | – | > 100 | – | > 100 µM | – | > 100 µM | – | > 100 µM | – | > 100 µM
CCOCCCn1c2c(c3c(O)cccc31)C(=O)c1ccccc1-2 | 27.8 µM | 68.6 µM | 20.6 µM | 55 | 20.3 µM | 38.5 µM | 21.4 µM | 55.3 µM | 30.3 µM | 82.1 µM | 17.8 µM | 39.9 | 17.2 µM | 32.7 µM | 15.9 µM | 38.4 µM | 16 µM | 33.3 µM | 18.1 µM | 50.3 µM
CCC(C)Nc1ccc(N)cc1 (stereo unspecified) | 5.33 µM | 16.9 µM | 3.73 µM | 13.3 | 3.21 µM | 8.61 µM | 4.91 µM | 20.1 µM | 4.62 µM | 15.8 µM | 13.8 µM | 39.8 | 3.43 µM | 11 µM | 3.3 µM | 14 µM | 1.72 µM | 3.19 µM | 5.61 µM | 19.2 µM
CNC(=O)c1c(NC(=O)c2ccc(C(C)(C)C)cc2)sc2c1CCC(=O)C2 | 0.824 µM | 3.49 µM | 0.203 µM | 0.922 | 0.508 µM | 1.96 µM | 0.334 µM | 1.35 µM | 0.244 µM | 1.01 µM | 0.341 µM | 1.41 | 0.19 µM | 1.31 µM | 0.214 µM | 0.819 µM | 0.2 µM | 0.462 µM | 0.414 µM | 1.85 µM
CCOP(=O)(OCC)C1CCCOC1=O (stereo unspecified) | – | > 100 µM | – | > 100 | – | > 100 µM | – | > 100 µM | – | > 100 µM | – | > 100 | – | > 100 µM | – | > 100 µM | – | > 100 µM | – | > 100 µM
O=[N+]([O-])C=C(c1ccc(Cl)cc1)c1ccc(Cl)cc1 | – | 36.9 µM | – | 30.5 | – | 57 µM | – | 32.8 µM | – | 33.5 µM | – | 27.7 | – | 25.5 µM | – | 27.2 µM | – | 12.2 µM | – | –
CNC(=O)c1cc(Oc2ccc(NC(=O)Nc3ccc(Cl)c(C(F)(F)F)c3)c(F)c2)ccn1 | 1.97 µM and 1.35 µM | 6.03 µM and 5.1 µM | 3.29 µM and 2.88 µM | > 44.9 | 0.664 µM and 0.336 µM | 2.13 µM and 1.86 µM | 2.82 µM and 2.29 µM | 19.8 µM and > 10 µM | 3.83 µM and 2.91 µM | 17 µM and > 10 µM | 2.68 µM and 2.3 µM | > 44.4 | 1.12 µM and 0.787 µM | 6.93 µM and > 10 µM | 1.53 µM and 1.82 µM | 4.22 µM and > 10 µM | 2.28 µM and 1.36 µM | 8.52 µM and 5.74 µM | 2.93 µM and 3.02 µM | 14 µM and > 10 µM
CCN(Cc1ccccc1)C1CCN(Cc2cc(Br)ccc2O)CC1 | 26 µM | > 100 µM | 79.7 µM | > 100 | 85.4 µM | > 100 µM | 25.6 µM | > 100 µM | 17.5 µM | 94.6 µM | > 100 µM | > 100 | 23.3 µM | 63.6 µM | 24 µM | > 100 µM | 17 µM | 39.6 µM | 59.7 µM | > 100 µM
COc1ccc2c3c([nH]c2c1[N+](=O)[O-])C(C)N(Cc1ccccc1)CC3 (stereo unspecified) | – | 14.5 µM | – | > 100 | – | > 100 µM | – | – | – | 17.9 µM | – | > 100 | – | > 100 µM | – | > 100 µM | – | > 100 µM | – | 5.83 µM
COc1ccc2c(c1)[nH]c(=O)c1c3cccc(F)c3cn21 | > 92.9 µM | > 100 µM | 0.0576 µM | > 100 | 0.469 µM | > 100 µM | 0.0408 µM | – | 0.0375 µM | 34.1 µM | 0.508 µM | > 100 | 0.0759 µM | > 100 µM | 0.0596 µM | > 70.6 µM | 0.0388 µM | 1.11 µM | 0.0749 µM | 44.7 µM
CCOC(=O)Oc1cc2c(c(OC)c1OC)-c1ccc(OC)c(=O)cc1C(NC(C)=O)CC2 (stereo unspecified) | – | > 100 µM | – | > 100 | – | > 17.1 µM | – | 3.09 µM | – | 0.564 µM | – | > 100 | – | > 100 µM | – | > 100 µM | – | 0.135 µM | – | 73.5 µM
Nc1ccc(C(=O)N/C(=C\c2cccc([N+](=O)[O-])c2)c2nc3[nH]c(=S)[nH]c(=O)c3[nH]2)cc1 | – | > 100 µM | – | > 100 | – | > 100 µM | – | > 96.7 µM | – | 55.9 µM | – | > 100 | – | > 100 µM | – | > 100 µM | – | > 100 µM | – | > 100 µM
O=C(/C=C/c1ccccc1F)c1ccc(Cl)c(Cl)c1 | – | > 100 µM | – | > 100 | – | > 100 µM | – | > 100 µM | – | 62.4 µM | – | > 100 | – | 23.6 µM | – | > 100 µM | – | > 100 µM | – | > 100 µM
COc1ccc(/C(COc2ccc3oc(-c4ccccc4)cc(=O)c3c2)=N\O)cc1 | 0.316 µM | – | 0.331 µM | 20 | 32.1 µM | > 50 µM | < 0.005 µM | 0.154 µM | 47.4 µM | > 50 µM | 0.377 µM | > 25.5 | 0.0322 µM | 2.69 µM | 1.6 µM | > 50 µM | 0.606 µM | 19.2 µM | 0.162 µM | 1.36 µM
